# Data published in patent publication EP4772500A1, “NOVEL ISOXAZOLE COMPOUND AS TM4SF5-SPECIFIC INHIBITOR AND USE THEREOF” (Seoul National University R&DB Foundation, priority 2023, dated 2025).
# How the values were obtained:
# SNU449-EV cells = experiment: Cell migration tracking, control cells; assay type: cell-based, human; details: SNU449-EV, 2.5, 5.0, or 10.0 µM, 17 hours (FIG. 7)
# Experimental: (§1) SNU449-TM4SF5 cells, which were made to express TM4SF5 using a lentivirus in human hepatocellular carcinoma cells SNU449, and SNU449-EV cells, into which a control vector (empty vector, EV) was injected so that TM4SF5 is not expressed, were seeded to a density of 40% in 8-chamber plates (Thermo) coated with 10 µg/ml collagen type 1 (Advanced Biomatrix). Three hours after seeding in a cell culture environment containing 10% FBS (GenDEPOT), DMSO and drugs were treated in the culture medium at the indicated concentrations. After treating with the drugs, the positions of the same moving cells were repeatedly photographed using a microscope every 20 minutes for 17 hours. The cells were photographed using an IX81-ZDC microscope (Olympus) equipped with a UPLSAPO 10X2, NA0.4 Super Apochromatic objective lens (Olympus). While photographing the cells, a general cell culture environment was created by constantly injecting 5% CO2 at a rate of 40-60 mL/min at 37°C using a controller (Live Cell Instrument). The migration distance and path of the cells were calculated using the "Track Object" application of MetaMorph software (Molecular Devices LLC). […]
# Alb-TG^Tm4sf5-Flag mice = experiment: DEN-induced liver cancer model in TM4SF5 transgenic animals; assay type: in vivo
# Experimental: A liver cancer model was induced in 2-week-old male wild type (WT), Alb-TG^Tm4sf5-Flag [genetically modified animals in which Tm4sf5 expression is excessively regulated by the promoter of the Albumin gene, custom-made by Macrogen Co., Ltd.], or Tm4sf5^-/- KO C57BL/6N male animals by a single intraperitoneal injection (IP injection) of DEN (diethylnitrosamine, Sigma-Aldrich) at a concentration of 25 mg/kg, followed by raising for […]. After the DEN treatment, the animals were raised in a pathogen-free room animal facility where temperature and humidity were well controlled under a normal diet for 40 weeks. During the last 6 weeks, an isoxazole drug (dissolved in 40% DMSO) at the indicated concentration was treated by intraperitoneal injection twice a week. Forty-six weeks after the DEN injection, the animals were sacrificed, and liver tissues were analyzed through methods of tissue staining, Western blot, and qRT-PCR.
# In cases where a liver cancer model is induced by treating animals with diethylnitrosamine (DEN), liver cancer formation was induced by a single intraperitoneal injection (IP injection) of DEN into 2-week-old animals, followed by raising them for 46 weeks. […] Thereafter, the animals were sacrificed, and liver tissues were obtained and analyzed. […]
# SNU449-TM4SF5 cells = experiment: Cell migration tracking, TM4SF5-expressing cells; assay type: cell-based, human; details: SNU449-TM4SF5, 2.5, 5.0, or 10.0 µM, 17 hours (FIG. 7)
# Experimental: as §1
# [1] = system: SNU449-TM4SF5 and Huh7-Con; experiment: qRT-PCR/Western blotting of laminin γ2, AFP and liver cancer markers in TM4SF5-expressing hepatocytes; assay type: cell-based, human; details: 2.5 µM, 24 hours (FIG. 8h-i)
# SNU449T7 cells = experiment: Subcutaneous xenograft liver cancer model in severely combined immunodeficient animals; assay type: in vivo, NOD-SCID mice
# Experimental: Cells expressing TM4SF5 (SNU449T7) were cultured in a cell incubator at 37°C and 5% CO2. The next day, the cells were detached by treating with a T/E (Trypsin/EDTA) solution and centrifuged at 150 × g for 3 minutes to obtain a cell pellet. Thereafter, the supernatant was removed, and the pellet was prepared by resuspension in phosphate buffered saline (PBS). For the generation of cancer tissue, 5 × 10^5 cells/100 µl were injected once subcutaneously into the right thigh area of 6-week-old male NOD/SCID mice. At this time, the animals were anesthetized by inhalation with […] isoflurane and injected. From the 15th day after the cell injection, drug ST-5-002 was intraperitoneally injected at 2.5 mg/kg of body weight at 100 µl per dose for a total of 8 times every 3 days. The body weight and tumor volume of the animals were measured every 3 days from the 12th day after the cell injection. The tumor volume was calculated as (length × width × width)/2 (mm^3) by measuring the length and width of the tumor. On the 36th day after the cell (SNU449T7) injection, the animals were sacrificed, and cancer tissues were obtained and analyzed.
# SNU449T7 cells were subcutaneously injected into the thighs of 6-week-old male NOD/CB17-Prkdc^scid/J mice (NOD-SCID mice lacking or having non-functional immune cells such as T cells, B cells, and NK cells, n=10), at a dose of 5X10^5 cells. One week later, vehicle or the drug ST-5-002 was intravenously injected at a concentration of 2.5 mg/kg of body weight (mpk) twice a week. Three days after the 8th drug injection, the animals were sacrificed, cancer tissues were recovered and photographed, and immunohistochemistry, Western blot, and qRT-PCR analyses were performed.
SMILES,cell migration (SNU449-EV cells),"cancer formation (Alb-TG^Tm4sf5-Flag mice; DEN 25 mg/kg, drug 5 mg/kg IP twice a week for the final 6 weeks, Alb-TG^Tm4sf5-Flag mice (FIG. 23b))","mRNA expressions of NK cell activating receptor factors such as SLAMF7, NKG2D, CRTAM, DNAM-1, and CD27 (Alb-TG^Tm4sf5-Flag mice; qRT-PCR of liver tissues (FIG. 23c))",migration of the cells (SNU449-TM4SF5 cells),"elevated expressions of laminin γ2, AFP, phosphorylation of STAT3, FUCA and CD34 [1]","inhibitory efficacy in cancer formation in terms of tumor volume and weight (SNU449T7 cells; 2.5 mg/kg of body weight (mpk), 8 injections (FIG. 24c))","tumor size (SNU449T7 cells; 2.5 mg/kg of body weight (mpk), 8 injections, vs vehicle (FIG. 24b))",SLAMF7 staining in the small cancer areas (SNU449T7 cells; immunostaining (FIG. 24d)),degree of PD-L1 staining (SNU449T7 cells; immunostaining (FIG. 24d)),expression of TM4SF5 (SNU449T7 cells; immunostaining (FIG. 24d)),expressions of AFP and laminin γ2 (SNU449T7 cells; immunostaining (FIG. 24d)),"staining level of F4/80 and expressions of CCL5 and CCL20 (SNU449T7 cells; immunostaining, vs control group (FIG. 24d))"
"COc1ccc(-c2cc(-c3ccc(NC(C)=O)cc3)no2)cc1 [ST-2-001, N-(4-(5-(4-methoxyphenyl)isoxazole-3-yl)phenyl)acetamide]",did not change,minimal or did not occur,partially recovered and increased,decreased according to the treatment with ST-2-001 in a concentration-dependent manner,–,–,–,–,–,–,–,–
"Cc1ccc(C(=O)Nc2ccc(-c3cc(-c4ccc(O)cc4)no3)cc2)cc1 [ST-5-002, N-(4-(3-(4-hydroxyphenyl)isoxazole-5-yl)phenyl)-4-methylbenzamide]",–,–,–,–,inhibited,statistically significant inhibitory efficacy,decreased,much more distinctly strong staining level,decreased,did not change significantly,significantly reduced,lower
